Experimental data published in ChEMBL document CHEMBL1138556, “Synthesis of some new 4-styryltetrazolo[1,5-a]quinoxaline and 1-substituted-4-styryl[1,2,4]triazolo[4,3-a]quinoxaline derivatives as potent anticonvulsants” (2009).

Assays:
Mus musculus [1] = test: Anticonvulsant activity in Swiss albino mouse assessed as duration of pentylenetetrazole-induced seizures at 10 mg/kg administered 1 hr before PTZ challenge; type: functional
Mus musculus [2] = test: Anticonvulsant activity in Swiss albino mouse assessed as protection against pentylenetetrazole-induced seizures at 10 mg/kg administered 1 hr before PTZ challenge relative to control; type: functional

Fc1ccc(/C=C/c2nc3ccccc3n3c(-c4ccc(-c5ccccc5)cc4)nnc23)cc1
Activity (Mus musculus [1]): 8 s | Activity (Mus musculus [2]): 0%

CCOc1ccc(-c2nnc3c(/C=C/c4ccc(Cl)cc4)nc4ccccc4n23)cc1O
Activity (Mus musculus [1]): 12 s | Activity (Mus musculus [2]): 0%

COc1ccc(/C=C/c2nc3ccccc3n3c(-c4ccc(F)cc4)nnc23)cc1
Activity (Mus musculus [1]): 0 s | Activity (Mus musculus [2]): 100%

COc1ccc(/C=C/c2nc3ccccc3n3nnnc23)cc1
Activity (Mus musculus [1]): 11 s | Activity (Mus musculus [2]): 0%

Fc1ccc(/C=C/c2nc3ccccc3n3nnnc23)cc1
Activity (Mus musculus [1]): 0 s | Activity (Mus musculus [2]): 100%

COc1ccc(/C=C/c2nc3ccccc3n3c(C(F)(F)F)nnc23)cc1
Activity (Mus musculus [1]): 0 s | Activity (Mus musculus [2]): 100%

Cc1nnc2c(/C=C/c3cccc([N+](=O)[O-])c3)nc3ccccc3n12
Activity (Mus musculus [1]): 11 s | Activity (Mus musculus [2]): 0%

Cc1nnc2c(/C=C/c3ccc(F)cc3)nc3ccccc3n12
Activity (Mus musculus [1]): 0 s | Activity (Mus musculus [2]): 100%

O=[N+]([O-])c1cccc(/C=C/c2nc3ccccc3n3cnnc23)c1
Activity (Mus musculus [1]): 12 s | Activity (Mus musculus [2]): 0%

COc1ccc(/C=C/c2nc3ccccc3n3c(C)nnc23)cc1
Activity (Mus musculus [1]): 14 s | Activity (Mus musculus [2]): 0%

COc1ccc2cc(/C=C/c3nc4ccccc4n4nnnc34)ccc2c1
Activity (Mus musculus [1]): 8 s | Activity (Mus musculus [2]): 0%

C(=C\c1nc2ccccc2n2nnnc12)/c1ccccc1
Activity (Mus musculus [1]): 0 s | Activity (Mus musculus [2]): 100%

COc1ccc2cc(/C=C/c3nc4ccccc4n4c(C(F)(F)F)nnc34)ccc2c1
Activity (Mus musculus [1]): 12 s | Activity (Mus musculus [2]): 0%

Fc1ccc(/C=C/c2nc3ccccc3n3cnnc23)cc1
Activity (Mus musculus [1]): 0 s | Activity (Mus musculus [2]): 100%

Fc1ccc(/C=C/c2nc3ccccc3n3c(C(F)(F)F)nnc23)cc1
Activity (Mus musculus [1]): 0 s | Activity (Mus musculus [2]): 100%

COc1ccc(-c2nnc3c(/C=C/c4ccc(Cl)cc4)nc4ccccc4n23)cc1
Activity (Mus musculus [1]): 12 s | Activity (Mus musculus [2]): 0%

O=[N+]([O-])c1cccc(/C=C/c2nc3ccccc3n3nnnc23)c1
Activity (Mus musculus [1]): 11 s | Activity (Mus musculus [2]): 0%

COc1ccc(/C=C/c2nc3ccccc3n3cnnc23)cc1
Activity (Mus musculus [1]): 14 s | Activity (Mus musculus [2]): 0%
